Like-named read-outs stand apart in the source and are kept apart here.

What all share (format): cell-based
Test [1] deals with PD1-ss+10aa/Gaussia Luciferase. In words: Dox-Induced PD1-ss-Gluc Assay. The conditions noted are these: 293FRT/TO cells, read-out: 24 hr Dox Inducible PD1ssGluc 293FRT/TO: Mean IC50. The gist of the method: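 Compounds, diluted in DMSO/media with doxycycline, were added to cells plated a day earlier and kept at 37° C under 5% CO2. The cells stably express a Gaussia luciferase construct fused to PD1-ss+10aa, induced via the T-REx system. Unassigned stereochemistry means mixture data.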

Test [2] relates to TNFα-FL/Gaussia Luciferase. The test is described as follows: Dox Induced TNFα-FL-Gluc Assay. Conditions: 293FRT/TO cells, read-out: 24 hr Dox Inducible TNFaFLGluc 293FRT/TO: Mean IC50. A digest of the protocol:
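Compounds were added in doxycycline-containing DMSO/media to cells plated the previous day and incubated at 37° C under 5% CO2. These cells stably express a TNFα-FL/Gaussia luciferase cDNA whose expression is under T-REx (Dox-inducible) control, selected with Hygromycin and Blasticidin.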

The test system of test [3] is HER3-ss+4aa/Gaussia Luciferase. The test is described as follows: Dox-Induced Her3-ss-Gluc Assay. Conditions: 293FRT/TO cells, read-out: 24 hr Dox Inducible Her3(ss + 4)Gluc 293FRT/TO: Mean IC50. The gist of the method:
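Compounds, diluted in DMSO/media containing doxycycline, were incubated at 37° C., 5% CO2 with cells seeded one day earlier. The cells stably express HER3-ss+4aa/Gaussia luciferase under T-REx control. Where no stereochemistry is shown, data refer to the mixture of stereoisomers.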

Test [4] has as its system IL-2-FL/Gaussia Luciferase. The test is described as follows: Dox Induced IL2-FL-Gluc Assay. The conditions noted are these: 293FRT/TO cells, read-out: 24 hr Dox Inducible IL2FLGIuc 293FRT/TO: Mean IC50. The gist of the method:
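Compounds were added together with doxycycline in DMSO/media and incubated at 37° C., 5% CO2. The cells were a stably selected line carrying IL-2-FL/Gaussia luciferase under T-REx inducible control. Structures drawn without stereochemistry were tested as stereoisomer mixtures.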

For test [5], the system named is human multiple myeloma cell line NCI-H929. The test is described as follows: H929 Cell Viability Assay. The conditions noted are these: 48 hr, NCI-H929 cells, Celltiter-Glo, read-out: 48 hr H929 Viability Celltiter-Glo: Mean EC50. As for the experimental part:
Plates were incubated at 37° C., 5% CO2 for 48 hours. After 48 hours, Celltiter-Glo® (Promega) was added to each well and luciferase signal was quantified using Tecan Infinite M1000 Pro for cell viability determination.
For chemical structures that include one or more stereoisomers, but are illustrated without indicating stereochemistry, the assay data refers to a mixture of stereoisomers.

The test system of test [6] is human multiple myeloma cell line U266B1. The test is described as follows: U266 Cell Viability Assay. Conditions: U-266, 48 hr, U266B1 cells, Celltiter-Glo, read-out: 48 hr U266 Viability Celltiter-Glo: Mean EC50. The gist of the method:
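Viability measured by CellTiter-Glo luciferase signal after 48 h compound exposure (37 °C, 5% CO2) of U266B1 cells in 384-well format. Where stereochemistry is not shown, data refer to the stereoisomer mixture.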

Setting [7] is: 24 hr doxycycline induction, Gaussia luciferase signal.

Regarding `CC(C)(OCC(F)(F)F)c1csc(NC(=O)c2cccn2Cc2ccncc2)n1` [Compound A15, 1-(pyridin-4-ylmethyl)-N-(4-(2-(2,2,2-trifluoroethoxy)propan-2-yl)thiazol-2-yl)-1H-pyrrole-2-carboxamide], the IC50 is 0.169 µM in test [1] (setting [7]), 5.43 µM in test [2] (setting [7]), 0.318 µM in test [3] (setting [7]) and 0.11 µM in test [4] (setting [7]). Further, the EC50 (commonly the concentration at which the effect is half-maximal) in test [5] was 16.6 µM; in test [6], greater than 25 µM.
On to `CC(C)OC(C)(C)c1csc(NC(=O)c2cccn2CCOc2ccncc2)n1` [Compound A226, N-(4-(2-isopropoxypropan-2-yl)thiazol-2-yl)-1-(2-(pyridin-4-yloxy)ethyl)-1H-pyrrole-2-carboxamide], for which the IC50 in test [1] (setting [7]) is 0.302 µM; in test [2] (setting [7]), 7.08 µM; in test [3] (setting [7]) it was 0.426 µM; in test [4] (setting [7]), 0.32 µM. For the same molecule, the EC50 in test [5] is 11.9 µM; in test [6], greater than 25 µM.
For `Cc1cccc(/C=C/c2csc(NC(=O)c3cccn3Cc3ccncc3)n2)n1` [Compound A356], the IC50 in test [1] (24 hr, doxycycline-induced) was 0.035 µM; in test [2] (24 hr, doxycycline-induced) it was 14.4 µM; in test [3] (24 hr, doxycycline-induced), 5.41 µM; in test [4] (24 hr, doxycycline-induced), greater than 25 µM. In addition, the concentration for a half-maximal effect (EC50) in test [5] is greater than 25 µM; in test [6], 23.8 µM.
As to `CC(=O)NCCc1nc(NC(=O)c2cccn2Cc2ccncc2)sc1C` [Compound B22, N-(4-(2-acetamidoethyl)-5-methylthiazol-2-yl)-1-(pyridin-4-ylmethyl)-1H-pyrrole-2-carboxamide], the IC50 in test [1] (24 hr, doxycycline-induced) is greater than 25 µM; in test [2] (24 hr, doxycycline-induced), greater than 25 µM; in test [3] (24 hr, doxycycline-induced) it was greater than 25 µM; in test [4] (24 hr, doxycycline-induced), greater than 25 µM. Further, the EC50 in test [5] and in test [6] was greater than 25 µM throughout.
With `COc1ccc([C@H]2C[C@H]2c2csc(NC(=O)c3cccn3Cc3ccncc3)n2)nc1` [Compound A312], the IC50 in test [1] (24 hr, doxycycline-induced) is 0.197 µM; in test [2] (24 hr, doxycycline-induced), 4.13 µM; in test [3] (24 hr, doxycycline-induced), 0.646 µM; in test [4] (24 hr, doxycycline-induced), 1.14 µM. The EC50 in test [5] and in test [6] was greater than 25 µM in each case.
On to `O=C(Nc1nc([C@H]2C[C@H](Oc3ccccc3)C2)cs1)c1cccn1Cc1ccncc1` [Compound A329], for which the IC50 in test [1] (24 hr, doxycycline-induced) was found to be 0.202 µM; in test [2] (24 hr, doxycycline-induced), 3.16 µM; in test [3] (24 hr, doxycycline-induced), 0.342 µM; in test [4] (24 hr, doxycycline-induced), 0.739 µM. Moreover, the EC50 in test [5] was 22.8 µM; in test [6] it was greater than 25 µM.
On to `O=C(Nc1nc(/C=C/c2ccoc2)cs1)c1cccn1Cc1ccncc1` [Compound A222, N-(4-(2-(furan-3-yl)vinyl)thiazol-2-yl)-1-(pyridin-4-ylmethyl)-1H-pyrrole-2-carboxamide], for which the IC50 in test [1] (setting [7]) turned out to be 0.348 µM; in test [2] (setting [7]), 7.7 µM; in test [3] (setting [7]), 1.8 µM; in test [4] (setting [7]) it was 2.27 µM. The EC50 in test [5] was 19.1 µM; in test [6], greater than 25 µM.
Take `O=C(Nc1nc(/C=C/c2ncc(F)cc2F)cs1)c1cccn1Cc1ccncc1` [Compound A358]: the IC50 in test [1] (24 hr, doxycycline-induced) stood at 0.029 µM; in test [2] (24 hr, doxycycline-induced), 3.57 µM; in test [3] (24 hr, doxycycline-induced), 0.443 µM; in test [4] (24 hr, doxycycline-induced), 0.765 µM. Also, the half-maximal effective concentration (EC50) in test [5] is 17.9 µM; in test [6], greater than 25 µM.
For the molecule `Cc1csc(N(C)C(=O)c2cccn2Cc2ccncc2)n1` [Compound A118], the IC50 in test [1] (setting [7]), in test [2] (setting [7]), in test [3] (setting [7]) and in test [4] (setting [7]) was greater than 25 µM in each case. The EC50 in test [5] and in test [6] was greater than 25 µM throughout.
With `C[C@H](OC(C)(C)c1csc(NC(=O)c2cccn2CCCc2ccncc2)n1)c1ccccc1` [Compound A6, (S)-N-(4-(2-(1-phenylethoxy)propan-2-yl)thiazol-2-yl)-1-(3-(pyridin-4-yl)propyl)-1H-pyrrole-2-carboxamide], the IC50 in test [1] (setting [7]) was determined as 0.046 µM; in test [2] (setting [7]), 0.541 µM; in test [3] (setting [7]), 0.088 µM; in test [4] (setting [7]), 0.078 µM. For the same molecule, the EC50 in test [5] worked out at 2.17 µM; in test [6], 6.23 µM.
`COc1cc(Cn2cccc2C(=O)Nc2nc(C(C)(C)OC(C)C)cs2)ccn1` [Compound A125, N-(4-(2-isopropoxypropan-2-yl)thiazol-2-yl)-1-((2-methoxypyridin-4-yl)methyl)-1H-pyrrole-2-carboxamide]: the IC50 in test [1] (setting [7]), in test [2] (setting [7]), in test [3] (setting [7]) and in test [4] (setting [7]) was greater than 25 µM each time. For the same molecule, the EC50 in test [5] and in test [6] was greater than 25 µM in each case.
As for `CC(=O)N(C)c1ccc(Cn2cccc2C(=O)Nc2nc(C(C)(C)OC(C)C)cs2)cc1` [Compound A99, N-(4-(2-isopropoxypropan-2-yl)thiazol-2-yl)-1-(4-(N-methylacetamido)benzyl)-1H-pyrrole-2-carboxamide], the IC50 is 19.9 µM in test [1] (setting [7]), greater than 25 µM in test [2] (setting [7]), greater than 25 µM in test [3] (setting [7]) and greater than 25 µM in test [4] (setting [7]). Further, the EC50 in test [5] and in test [6] was greater than 25 µM throughout.
`CC(C)OC(C)(C)c1csc(NC(=O)c2cc(C(=O)N(C)C)cn2Cc2ccncc2)n1` [Compound A111, N2-(4-(2-isopropoxypropan-2-yl)thiazol-2-yl)-N4,N4-dimethyl-1-(pyridin-4-ylmethyl)-1H-pyrrole-2,4-dicarboxamide]: the IC50 in test [1] (setting [7]), in test [2] (setting [7]), in test [3] (setting [7]) and in test [4] (setting [7]) was greater than 25 µM in each case. In addition, the EC50 in test [5] and in test [6] was greater than 25 µM each time.
For the molecule `O=C(Nc1nc(C2=CCN(c3ccccc3)CC2)cs1)c1cccn1Cc1ccncc1` [Compound A258], the IC50 is 0.701 µM in test [1] (setting [7]), greater than 25 µM in test [2] (setting [7]), 6.4 µM in test [3] (setting [7]) and 14.5 µM in test [4] (setting [7]). For the same molecule, the EC50 in test [5] is 23.8 µM; in test [6], greater than 25 µM.
`COCc1csc(NC(=O)c2cccn2Cc2ccncc2)n1` [Compound A81]: the IC50 is 4.62 µM in test [1] (setting [7]), greater than 25 µM in test [2] (setting [7]), 23 µM in test [3] (setting [7]) and greater than 25 µM in test [4] (setting [7]). In addition, the EC50 in test [5] and in test [6] was greater than 25 µM each time.
Regarding `O=C(Nc1nc(Cc2ccccc2)cs1)c1cccn1CCCc1cccnc1` [Compound A187, N-(4-benzylthiazol-2-yl)-1-(3-(pyridin-3-yl)propyl)-1H-pyrrole-2-carboxamide], the IC50 was 10.4 µM in test [1] (setting [7]), greater than 25 µM in test [2] (setting [7]), greater than 21.9 µM in test [3] (setting [7]) and 11.6 µM in test [4] (setting [7]). Further, the EC50 in test [5] is 18.3 µM; in test [6], greater than 25 µM.
Regarding `O=C(Nc1nc(Cc2ccccc2)cs1)c1cccn1Cc1ccncc1NCc1ccccc1` [Compound A213, 1-((3-(benzylamino)pyridin-4-yl)methyl)-N-(4-benzylthiazol-2-yl)-1H-pyrrole-2-carboxamide], the IC50 in test [1] (setting [7]) is 12.1 µM; in test [2] (setting [7]), greater than 25 µM; in test [3] (setting [7]), 4.94 µM; in test [4] (setting [7]) it was 6.05 µM. Also, the EC50 in test [5] was determined as 13.8 µM; in test [6], 17.7 µM.
Consider `COc1cnccc1Cn1cccc1C(=O)Nc1nc(C(C)(C)OC(C)C)cs1` [Compound A211, N-(4-(2-isopropoxypropan-2-yl)thiazol-2-yl)-1-((3-methoxypyridin-4-yl)methyl)-1H-pyrrole-2-carboxamide], for which the IC50 in test [1] (setting [7]) was 10 µM; in test [2] (setting [7]), greater than 25 µM; in test [3] (setting [7]) it was greater than 25 µM; in test [4] (setting [7]), 8.31 µM. For the same molecule, the EC50 in test [5] and in test [6] was greater than 25 µM in each case.
`O=C(Nc1nc(C2=CC(c3ccccc3)CCC2)cs1)c1cccn1Cc1ccncc1` (stereo not drawn) [Compound A294]: the IC50 in test [1] (24 hr, doxycycline-induced) turned out to be 0.499 µM; in test [2] (24 hr, doxycycline-induced), 4.44 µM; in test [3] (24 hr, doxycycline-induced), 1.05 µM; in test [4] (24 hr, doxycycline-induced) it was 0.939 µM. Besides, the EC50 in test [5] and in test [6] was greater than 25 µM throughout.

For the origin of these results see patent publication US20220153732A1, “PROTEIN SECRETION INHIBITORS” (KEZAR LIFE SCIENCES, priority 2019, published 2022).
